Consider five compounds from patent US20180289713A1, “COMPOUNDS FOR TREATING AMYOTROPHIC LATERAL SCLEROSIS” (Hoffmann-La Roche Inc., priority 2015, published 2018).

The test system of assay [1] is full length SMN2 minigene mRNA (HEK293H cell line stably transfected with SMN2-A minigene). The experiment in a line: SMN2 minigene mRNA splicing RT-qPCR assay in cultured cells. Conditions: HEK293-H, concentration raising full length SMN2 minigene mRNA 1.5-fold vs vehicle, 24 hours, 7-point curve, read-out: EC1.5x minigene. It is filed as cell-based. The text has this:
The term “EC1.5× concentration for production of full length SMN2 minigene mRNA” (or “EC1.5× minigene”) is defined as that concentration of test compound that is effective in increasing the amount of full length SMN2 minigene mRNA to a level 1.5-fold greater relative to that in vehicle-treated cells.
The reverse transcription-quantitative PCR-based (RT-qPCR) assay is used to quantify the level of the full length SMN2 minigene (referred to herein by the term “FL SMN2mini”) mRNA containing SMN2 exon 7 in a HEK293H cell line stably transfected with said minigene and treated with a test compound. Materials used and respective sources are listed below in Table 1.
The SMN2-A minigene construct was prepared as described in International Patent Application WO2009/151546A1 page 145 paragraph [00400] to page 147 paragraph [00412](incl. FIG. 1 and FIG. 3 therein).
HEK293H cells stably transfected with the SMN2-A minigene construct (10,000 cells/well) are seeded in 200 μL of cell culture medium (DMEM plus 10% FBS, with 200 μg/mL hygromycin) in 96-well flat-bottom plates and the plate is immediately swirled to ensure proper dispersal of cells and the formation of an even monolayer of cells. Cells are allowed to attach for 6 hours. Test compounds are serially diluted 3.16-fold in 100% DMSO to generate a 7-point concentration curve. […]
Full length SMN2-A minigene and GAPDH mRNA are quantified using the primers and probes referenced in WO2014/209841A2 on page 80 in Table 1. […]
The increase in the abundance of the FL SMN2mini mRNA relative to that in cells treated with vehicle control is determined from real-time PCR data using a modified […] method (as described in Livak and Schmittgen, Methods, 2001, 25:402-8). The amplification efficiency E is calculated from the slope of the amplification curve for FL SMN2mini and GAPDH individually. The abundance of FL SMN2mini and GAPDH mRNA are then calculated as (1+E)^−Ct, where Ct is the threshold value for each amplicon. […]
(In general: Real-time PCR tracks product formation cycle by cycle.)

The next assay has as its system patients with ALS. Conditions: cited from earlier work.
Assay [2] relates to SMN levels in SOD1-ALS iPS cell and TDP43-47A iPS cell line. Conditions: dose dependent; SOD1-ALS and TDP43-47A iPSC-derived ALS models; cited from earlier work.

SMILES strings stand for the structures.

Consider `Cc1cn2nc(-c3cc(=O)n4cc(N5CCNC6(CC6)C5)ccc4n3)ccc2n1` [Example 19, 7-(4,7-diazaspiro[2.5]octan-7-yl)-2-(2-methylimidazo[1,2-b]pyridazin-6-yl)pyrido[1,2-a]pyrimidin-4-one], for which, in assay [1], the EC (1.5-fold) is 0.0102 µM.
Same read-out and setting: for `Cc1cn2nc(-c3cc(=O)n4cc(N5C[C@@H](C)N[C@@H](C)C5)cc(C)c4n3)cc(C)c2n1` [Example 26, 2-(2,8-dimethylimidazo[1,2-b]pyridazin-6-yl)-7-[(3R,5S)-3,5-dimethylpiperazin-1-yl]-9-methyl-pyrido[1,2-a]pyrimidin-4-one] the value was 0.327 µM; for `Cc1cn2nc(-c3cc(=O)n4cc(N5CCNC(C)(C)C5)cc(C)c4n3)cc(C)c2n1` [Example 27, 2-(2,8-dimethylimidazo[1,2-b]pyridazin-6-yl)-7-(3,3-dimethylpiperazin-1-yl)-9-methyl-pyrido[1,2-a]pyrimidin-4-one], 0.0399 µM.
Take `Nc1nc2ccc(OC(F)(F)F)cc2s1` [Riluzole]: in the assay with patients with ALS (ALS patients, some reports), the “improvement of muscular strength” value is recorded as “does not appear to provide any improvement of muscular strength”. The extension of life result in the assay on patients with ALS (at least some patients with ALS) is listed as “three”.
As for `CCN1CCC(c2cc(C)c3nc(-c4cc5c(C)nc(C)cn5n4)cc(=O)n3c2)CC1` [SMN-C3], the “increase of SMN levels” value in assay [2] is “up to 1.4 fold”.
